The target in experiment [1] is T1, Protein kinase C epsilon type (Homo sapiens) (UniProt Q02156).
T1 sequence (whole entry): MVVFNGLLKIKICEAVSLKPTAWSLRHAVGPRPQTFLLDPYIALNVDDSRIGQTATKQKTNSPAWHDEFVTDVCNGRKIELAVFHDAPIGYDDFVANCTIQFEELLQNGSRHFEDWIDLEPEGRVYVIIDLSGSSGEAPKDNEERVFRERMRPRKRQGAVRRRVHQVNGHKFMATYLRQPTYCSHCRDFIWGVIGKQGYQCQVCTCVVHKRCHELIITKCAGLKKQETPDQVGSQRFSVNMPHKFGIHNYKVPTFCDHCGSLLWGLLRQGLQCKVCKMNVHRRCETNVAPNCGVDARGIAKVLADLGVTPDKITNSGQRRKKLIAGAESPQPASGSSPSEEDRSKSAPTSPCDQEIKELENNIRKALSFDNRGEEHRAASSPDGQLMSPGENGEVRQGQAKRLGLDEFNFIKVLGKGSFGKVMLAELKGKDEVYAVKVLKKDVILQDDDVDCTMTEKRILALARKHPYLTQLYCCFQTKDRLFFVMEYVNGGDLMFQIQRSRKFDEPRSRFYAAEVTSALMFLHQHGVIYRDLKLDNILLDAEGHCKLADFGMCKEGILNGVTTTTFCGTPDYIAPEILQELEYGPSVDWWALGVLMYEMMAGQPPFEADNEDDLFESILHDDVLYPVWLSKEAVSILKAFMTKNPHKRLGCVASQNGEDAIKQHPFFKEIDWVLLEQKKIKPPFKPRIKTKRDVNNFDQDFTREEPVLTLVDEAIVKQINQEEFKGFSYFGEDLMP
Put plainly: Inhibition of human recombinant PKCe at 40 nM in presence of ATP by radiometric assay relative to control.

Experiment [2] has as its target T2, Serine/threonine-protein kinase TAO2 (Homo sapiens) (UniProt Q9UL54).
T2 sequence (whole entry): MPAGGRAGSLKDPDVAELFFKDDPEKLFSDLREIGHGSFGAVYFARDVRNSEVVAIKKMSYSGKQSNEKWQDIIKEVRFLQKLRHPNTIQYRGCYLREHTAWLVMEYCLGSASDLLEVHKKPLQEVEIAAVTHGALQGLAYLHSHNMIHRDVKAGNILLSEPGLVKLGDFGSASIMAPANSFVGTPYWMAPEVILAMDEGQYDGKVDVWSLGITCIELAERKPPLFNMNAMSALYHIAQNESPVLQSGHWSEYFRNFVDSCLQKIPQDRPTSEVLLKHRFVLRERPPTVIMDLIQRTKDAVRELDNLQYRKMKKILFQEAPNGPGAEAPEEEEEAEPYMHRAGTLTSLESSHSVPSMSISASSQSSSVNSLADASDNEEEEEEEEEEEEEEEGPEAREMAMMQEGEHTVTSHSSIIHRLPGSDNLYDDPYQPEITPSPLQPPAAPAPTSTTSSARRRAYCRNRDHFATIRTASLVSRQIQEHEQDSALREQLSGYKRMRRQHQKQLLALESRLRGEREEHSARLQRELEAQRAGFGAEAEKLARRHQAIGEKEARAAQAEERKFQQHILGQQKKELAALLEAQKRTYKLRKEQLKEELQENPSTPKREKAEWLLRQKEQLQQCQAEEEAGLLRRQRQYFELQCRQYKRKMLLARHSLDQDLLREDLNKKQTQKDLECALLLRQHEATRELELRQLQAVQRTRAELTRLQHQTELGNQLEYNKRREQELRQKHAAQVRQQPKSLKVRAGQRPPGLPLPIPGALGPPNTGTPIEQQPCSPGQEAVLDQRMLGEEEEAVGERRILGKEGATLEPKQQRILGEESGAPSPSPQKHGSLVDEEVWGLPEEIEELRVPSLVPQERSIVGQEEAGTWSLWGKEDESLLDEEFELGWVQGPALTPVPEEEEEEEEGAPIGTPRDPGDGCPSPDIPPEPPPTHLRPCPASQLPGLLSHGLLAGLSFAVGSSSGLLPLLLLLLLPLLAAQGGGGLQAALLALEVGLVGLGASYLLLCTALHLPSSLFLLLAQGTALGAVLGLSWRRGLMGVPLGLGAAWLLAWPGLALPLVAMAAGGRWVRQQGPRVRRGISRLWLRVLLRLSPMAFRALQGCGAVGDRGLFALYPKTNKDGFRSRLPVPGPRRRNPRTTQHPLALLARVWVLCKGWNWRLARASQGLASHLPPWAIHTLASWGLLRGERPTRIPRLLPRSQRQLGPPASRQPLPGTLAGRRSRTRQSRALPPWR
Put plainly: Inhibition of human recombinant TAO2 at 15 nM related to control ULK1.

For experiment [3], the target named is T3, Phosphorylase b kinase gamma catalytic chain, liver/testis isoform (Homo sapiens) (UniProt P15735).
T3 sequence (whole entry): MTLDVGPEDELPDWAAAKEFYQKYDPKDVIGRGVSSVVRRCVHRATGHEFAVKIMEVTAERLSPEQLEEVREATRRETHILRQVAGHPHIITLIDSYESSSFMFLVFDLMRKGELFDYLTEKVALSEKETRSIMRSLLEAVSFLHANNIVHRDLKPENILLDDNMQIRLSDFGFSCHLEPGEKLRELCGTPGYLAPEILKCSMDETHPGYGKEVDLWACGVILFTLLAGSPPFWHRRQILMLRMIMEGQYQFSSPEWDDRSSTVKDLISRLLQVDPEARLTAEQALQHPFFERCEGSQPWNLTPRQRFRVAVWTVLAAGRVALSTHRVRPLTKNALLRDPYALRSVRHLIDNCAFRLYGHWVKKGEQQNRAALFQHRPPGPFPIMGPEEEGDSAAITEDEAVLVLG
Kind of experiment: Inhibition of human recombinant PHKg2 at 15 nM related to control ULK1.

Experiment [4] concerns the target SRSF protein kinase 1 (Homo sapiens) (UniProt Q96SB4). Kind of experiment: Inhibition of human recombinant SRPK1 at 15 nM related to control ULK1.
Experiment [5] addresses Calcium/calmodulin-dependent protein kinase kinase 2 (Homo sapiens) (UniProt Q96RR4). Put plainly: Inhibition of human recombinant CaMKK2 at 15 nM in presence of ATP by radiometric assay relative to control.
Experiment [6] has as its target Hepatocyte growth factor receptor (Homo sapiens) (UniProt P08581). Put plainly: Inhibition of human recombinant MET at 15 nM related to control ULK1.

For orientation: inhibition means the drop in the measured response relative to a control, in per cent.

SRSF protein kinase 1 (Homo sapiens), sequence (Q96SB4 whole entry): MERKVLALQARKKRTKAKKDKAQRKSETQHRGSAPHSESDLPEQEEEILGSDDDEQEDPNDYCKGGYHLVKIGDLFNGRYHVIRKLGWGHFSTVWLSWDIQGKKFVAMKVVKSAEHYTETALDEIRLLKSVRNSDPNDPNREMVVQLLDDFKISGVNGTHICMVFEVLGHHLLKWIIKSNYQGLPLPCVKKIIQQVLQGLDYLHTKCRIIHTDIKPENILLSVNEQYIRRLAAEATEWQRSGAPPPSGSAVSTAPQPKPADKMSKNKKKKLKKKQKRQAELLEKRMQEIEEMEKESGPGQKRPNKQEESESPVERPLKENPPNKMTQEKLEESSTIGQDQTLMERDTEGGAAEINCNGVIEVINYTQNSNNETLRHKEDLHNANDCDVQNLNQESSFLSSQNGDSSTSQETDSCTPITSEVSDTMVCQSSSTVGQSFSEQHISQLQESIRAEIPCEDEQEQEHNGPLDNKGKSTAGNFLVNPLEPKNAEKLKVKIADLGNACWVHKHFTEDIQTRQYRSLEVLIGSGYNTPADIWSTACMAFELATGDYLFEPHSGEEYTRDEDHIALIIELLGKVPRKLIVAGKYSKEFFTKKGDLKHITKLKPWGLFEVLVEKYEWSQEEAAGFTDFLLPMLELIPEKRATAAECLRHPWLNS
Calcium/calmodulin-dependent protein kinase kinase 2 (Homo sapiens), sequence (Q96RR4 2-588 limits assumed): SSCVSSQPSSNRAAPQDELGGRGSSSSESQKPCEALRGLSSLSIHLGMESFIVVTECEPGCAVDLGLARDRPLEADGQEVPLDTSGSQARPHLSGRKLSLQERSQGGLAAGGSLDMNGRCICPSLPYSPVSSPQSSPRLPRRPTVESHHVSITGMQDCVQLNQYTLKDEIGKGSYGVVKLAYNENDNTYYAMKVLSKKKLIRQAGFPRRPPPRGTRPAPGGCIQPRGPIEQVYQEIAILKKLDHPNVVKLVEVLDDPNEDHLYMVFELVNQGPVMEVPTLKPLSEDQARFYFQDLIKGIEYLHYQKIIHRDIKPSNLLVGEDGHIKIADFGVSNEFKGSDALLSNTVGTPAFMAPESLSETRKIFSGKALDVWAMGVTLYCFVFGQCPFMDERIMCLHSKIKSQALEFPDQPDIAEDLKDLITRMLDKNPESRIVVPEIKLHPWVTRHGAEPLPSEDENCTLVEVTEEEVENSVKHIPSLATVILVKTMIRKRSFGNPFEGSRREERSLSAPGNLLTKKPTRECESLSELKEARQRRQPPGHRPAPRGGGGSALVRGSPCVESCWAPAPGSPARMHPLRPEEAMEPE
Hepatocyte growth factor receptor (Homo sapiens), sequence (P08581 whole entry, looked up): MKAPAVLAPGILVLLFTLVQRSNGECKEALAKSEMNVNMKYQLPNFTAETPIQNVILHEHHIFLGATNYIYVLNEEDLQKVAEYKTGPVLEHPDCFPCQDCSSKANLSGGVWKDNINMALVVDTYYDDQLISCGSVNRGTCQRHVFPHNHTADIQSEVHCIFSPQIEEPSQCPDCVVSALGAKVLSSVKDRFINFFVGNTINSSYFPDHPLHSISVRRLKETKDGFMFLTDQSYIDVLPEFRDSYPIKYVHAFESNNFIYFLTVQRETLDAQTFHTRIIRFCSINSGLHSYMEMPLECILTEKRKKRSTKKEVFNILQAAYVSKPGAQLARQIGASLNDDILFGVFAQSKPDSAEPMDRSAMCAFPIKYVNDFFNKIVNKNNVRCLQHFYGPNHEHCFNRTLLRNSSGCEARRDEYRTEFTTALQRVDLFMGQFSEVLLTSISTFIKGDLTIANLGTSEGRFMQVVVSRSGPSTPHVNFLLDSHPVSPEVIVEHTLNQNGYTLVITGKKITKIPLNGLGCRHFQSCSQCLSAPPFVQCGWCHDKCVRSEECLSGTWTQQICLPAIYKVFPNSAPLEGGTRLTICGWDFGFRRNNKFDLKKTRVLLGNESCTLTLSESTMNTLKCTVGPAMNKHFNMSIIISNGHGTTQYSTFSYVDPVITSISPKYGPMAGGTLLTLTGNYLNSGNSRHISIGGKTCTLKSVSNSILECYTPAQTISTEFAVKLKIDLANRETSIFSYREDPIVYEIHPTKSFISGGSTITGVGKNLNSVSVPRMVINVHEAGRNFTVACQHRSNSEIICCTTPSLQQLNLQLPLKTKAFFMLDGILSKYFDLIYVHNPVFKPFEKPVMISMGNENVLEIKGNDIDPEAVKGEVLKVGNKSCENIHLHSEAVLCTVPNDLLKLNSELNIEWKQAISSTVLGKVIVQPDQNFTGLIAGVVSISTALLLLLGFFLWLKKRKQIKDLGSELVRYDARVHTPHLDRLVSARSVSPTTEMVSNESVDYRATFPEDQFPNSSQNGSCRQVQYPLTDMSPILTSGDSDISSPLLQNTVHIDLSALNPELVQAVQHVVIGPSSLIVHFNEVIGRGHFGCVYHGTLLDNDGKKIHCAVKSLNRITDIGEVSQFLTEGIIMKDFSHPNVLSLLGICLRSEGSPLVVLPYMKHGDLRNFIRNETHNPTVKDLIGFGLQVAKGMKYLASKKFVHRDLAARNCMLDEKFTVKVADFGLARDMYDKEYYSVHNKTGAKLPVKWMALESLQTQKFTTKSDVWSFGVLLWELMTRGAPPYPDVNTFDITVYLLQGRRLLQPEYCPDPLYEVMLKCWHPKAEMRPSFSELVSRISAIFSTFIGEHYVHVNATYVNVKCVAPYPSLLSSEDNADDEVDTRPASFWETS

On to `O=C(N[C@@H](C1CC1)C(F)(F)F)c1cc(-c2cnn3cc(-c4ccc(F)cc4)cnc23)cs1`, for which the inhibition in experiment [1] amounted to 0%.
With `CC(C)[C@H](NC(=O)c1cc(-c2cnn3cc(-c4ccc(OCCN5CCCCC5)cc4)cnc23)cs1)C(F)(F)F`, the fold change (FC) worked out at 0 in experiment [2], 0.1 in experiment [3], 0 in experiment [4] and 0 in experiment [6]. In addition, the inhibition in experiment [5] was determined as 1%.

These data come from ChEMBL document CHEMBL5653631, “A Potent and Selective ULK1 Inhibitor Suppresses Autophagy and Sensitizes Cancer Cells to Nutrient Stress” (iScience, 2018).
